{"source": "paper PMC6911621", "about": "(Cancer research, 2019)", "key": {"tumor cells [1]": {"tested_on": "tumor cells", "assay": "HMGB1 release", "type": "cell-based", "settings": "Supplementary Fig. S4F and G"}, "tumor cells [2]": {"tested_on": "tumor cells", "assay": "Tumor cell death with pan-caspase inhibitor", "type": "cell-based", "settings": "plus cell-permeable MFF peptide #8–11, Supplementary Fig. S4D"}, "[3]": {"molecular_target": "endogenous voltage-dependent anion channel-1 (VDAC1) (human (endogenous in PC3)) (UniProt P21796)", "sequence (P21796 whole entry)": "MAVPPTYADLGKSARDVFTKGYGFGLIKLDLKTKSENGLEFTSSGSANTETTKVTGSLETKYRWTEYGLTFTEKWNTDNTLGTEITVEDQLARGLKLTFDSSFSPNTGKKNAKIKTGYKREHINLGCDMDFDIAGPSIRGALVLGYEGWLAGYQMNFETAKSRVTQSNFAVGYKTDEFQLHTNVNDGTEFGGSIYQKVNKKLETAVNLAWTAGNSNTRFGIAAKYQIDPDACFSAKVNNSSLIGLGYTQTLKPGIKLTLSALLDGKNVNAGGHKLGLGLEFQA"}}, "note": "Ends that are not written are not given here. Peptide text beside a SMILES is read from it. * marks the point of attachment. Biotin = O=C1N[C@H]2[C@H](CS[C@H]2CCCCC(=O)*)N1; Cbz = O=C(OCc1ccccc1)*; Ahx = NCCCCCC(=O)O; CH2F = FC*", "data": [{"molecule": "MFF-DD mutant peptide #8–11: MFF peptide #8–11 containing the double mutation Arg225Asp/Arg236Asp (DD) ({Biotin-Ahx}-RQIKIWFQNRRMKSADGILSLIQSSTDRAYQQIL)", "values": [{"measurement": "HMGB1 release", "setting": "tumor cells [1]", "value": "did not cause HMGB1 release"}]}, {"molecule": "COC(=O)C[C@H](NC(=O)[C@H](C)NC(=O)[C@@H](NC(=O)OCc1ccccc1)C(C)C)C(=O)CF", "note": "[Z-VAD-fmk] (Cbz-Val-Ala-Asp(OMe)-CH2F)", "values": [{"measurement": "reversal of cell death induced by cell-permeable MFF peptide #8–11", "setting": "tumor cells [2]", "value": "did not significantly reduce tumor cell death"}]}, {"molecule": "{Biotin-Ahx}-RQIKIWFQNRRMKSARGILSLIQSSTRRAYQQIL", "note": "[cell-permeable MFF peptide #8-11]", "values": [{"measurement": "other", "setting": "[3]", "value": 10, "unit": "µM"}]}]}
